Experimental findings from patent US5480987A, “2-substituted alkyl-3-carboxy carbapenems as antibiotics and a method of producing them” (American Cyanamid Company, priority 1994, dated 1996) are described below.

Where a name gives a salt, the structure may show the parent alone.

What all share (assay type): cell-based
In experiment [1] the test system is E. Coli-OXA-4. The experiment can be described thus: In vitro antibacterial activity of carbapenem, piperacillin and 1:1 combination. Particulars: single agent. As for the experimental part:
(§1) A sample of the carbapenems prepared in this invention is tested in combination with the penicillin Piperacillin. The enhanced combined synergistic antibacterial activity is representative of the anti β-lactamase properties of the carbapenems in this invention (Table 2).

For experiment [2], the system named is E. Coli-OXA-2. Described as above. As to conditions: single agent. As to the method:
as §1

Experiment [3] has as its system E. Coli-OXA-5. Described as above. Particulars: single agent. As to the method:
as §1

Experiment [4] has as its system E. Coli-OXA-7. The description is as above. As to conditions: single agent. As for the experimental part: as §1
In experiment [5] the test system is Pseudomonas OXA-6. The description is as above. Particulars: single agent. As to the method: as §1
Experiment [6] concerns Ser. marceslens. The experiment is described as follows: In vitro antibacterial activity, MIC by tube dilution, SM. Particulars: overnight incubation at 37° C., Nutrient Broth; for MIC: read-out: Minimum Inhibitory Concentration (MIC).
Experiment [7] has as its system E. coli ATCC 25922. The experiment can be described thus: In vitro antibacterial activity, MIC by tube dilution, Ec(1). Particulars: Nutrient Broth; for MIC: Escherichia coli, ATCC25922, overnight incubation at 37° C., read-out: Minimum Inhibitory Concentration (MIC).
In experiment [8] the test system is Staph. aureus ATCC 29213. The experiment can be described thus: In vitro antibacterial activity, MIC by tube dilution, SA(1). Particulars: Nutrient Broth; for MIC: Staphylococcus aureus, ATCC29213, overnight incubation at 37° C., read-out: Minimum Inhibitory Concentration (MIC).
For experiment [9], the system named is Staph. aureus ACCC 25923. The experiment is described as follows: In vitro antibacterial activity, MIC by tube dilution, SA(2). As to conditions: Nutrient Broth; for MIC: Staphylococcus aureus, ACCC25923, overnight incubation at 37° C., read-out: Minimum Inhibitory Concentration (MIC).
The test system of experiment [10] is E. coli ATCC 35218. The experiment can be described thus: In vitro antibacterial activity, MIC by tube dilution, Ec(2). Particulars: Nutrient Broth; for MIC: Escherichia coli, ATCC35218, overnight incubation at 37° C., read-out: Minimum Inhibitory Concentration (MIC).
The subject of experiment [11] is Ent. cloacae. The experiment can be described thus: In vitro antibacterial activity, MIC by tube dilution, Ent C. As to conditions: overnight incubation at 37° C., Nutrient Broth; for MIC: Enterobacter cloacae, read-out: Minimum Inhibitory Concentration (MIC).

`CC(O)C1C(=O)N2C(C(=O)O)=C(CS(=O)(=O)c3ccc(F)cc3)CC12` (stereo not drawn) [Example 48, [5R-[5Alpha,6alpha(R*)]]3-[[fluorophenyl)sulfonyl]methyl]-6-(1-hydroxyethyl)-7-oxo-1-azabicyclo[3.2.0]hept-2-ene-2-carboxylic acid, monosodium salt]: the M.I.C. in experiment [1] is 32 µg/mL; in experiment [2] it was 32 µg/mL; in experiment [3], 32 µg/mL; in experiment [4], 16 µg/mL; in experiment [5], 128 µg/mL. The MIC in experiment [6] is 32 µg/mL; in [7] it was 8 µg/mL; in [8] it was 0.06 µg/mL; in experiment [9] it was 0.06 µg/mL; in experiment [10] it was 8 µg/mL; in [11] it was 64 µg/mL.
Consider `CCN1CCN(C(=O)N[C@@H](C(=O)N[C@@H]2C(=O)N3[C@@H]2SC(C)(C)[C@@H]3C(=O)O)c2ccccc2)C(=O)C1=O` [Piperacillin, reference compound], for which the M.I.C. in [1] was found to be 8 µg/mL; in experiment [2], 16 µg/mL; in experiment [3], 2 µg/mL; in [4], 128 µg/mL; in experiment [5], 32 µg/mL.
Take `CC(O)C1C(=O)N2C(C(=O)O)=C(CS(=O)(=O)c3cccs3)CC12` (stereo not drawn) [Example 10, [5R-[5Alpha,6alpha(R*)]]-6-(1-hydroxyethyl)-3-[(2-thienylsulfonyl)methyl]-7-oxo-1-azabicyclo[3.2.0]-hept-2-ene-2-carboxylic acid, monosodium salt]: the MIC in experiment [6] came to 32 µg/mL; in [7], 1 µg/mL; in experiment [8], 0.06 µg/mL; in [9] it was 0.06 µg/mL; in experiment [10] it was 1 µg/mL; in experiment [11], 32 µg/mL.
For `COC(=O)C(Cl)=C1CC2C(C(C)O)C(=O)N2C1C(=O)[O-].[Na+]` (stereo not drawn) [Example 44, (2R-[2Alpha,3(R* or S*),5alpha,6alpha(R*)]]-3-(1-chloro-2-methoxy-2-oxoethylidene)-6-(1-hydroxyethyl)-7-oxo-1-azabicyclo[3.2.0]heptane-2-carboxylic acid, monosodium salt], the “Minimum Inhibitory Concentration (MIC)” value in experiment [6] came out at 128 µg/mL; in experiment [7] (overnight incubation at 37° C.), 128 µg/mL; in experiment [8] (overnight incubation at 37° C.), 64 µg/mL; in experiment [9] (overnight incubation at 37° C.), 64 µg/mL; in experiment [10] (overnight incubation at 37° C.) it was 128 µg/mL; in experiment [11], 128 µg/mL.
